17 compounds from PubChem BioAssay (NCI) can be followed below.

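Method: 48-hour compound exposure of cells in 96-well plates, five concentrations, linear interpolation of endpoints. The concentration for 50% growth inhibition is given as GI50. TGI: total growth inhibition.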

Test systems include RXF 393 renal; HCT-15 colon; OVCAR-8 ovarian; A498 renal; OVCAR-4 ovarian; CAKI-1 renal; SR leukemia.
Holding throughout (experiment): inhibition of tumour cell growth, NCI panel, 48 h

On to `N/C=N/S(=O)(=O)c1ccc(NC(=O)COC(=O)c2cccc3c(=O)c4ccccc4[nH]c23)cc1`, for which the TGI with RXF 393 renal, in the assay with HCT-15 colon and in the assay on OVCAR-8 ovarian was above 100 µM throughout.

As for `CCc1ccccc1NC(=O)C(=O)C(C#N)c1ccccc1Cl` (configuration not stated), the TGI in the assay with RXF 393 renal, in the assay with OVCAR-8 ovarian, in the assay with A498 renal and in the assay with OVCAR-4 ovarian was above 100 µM in each case.

Regarding `O=C(Cc1ccccc1[N+](=O)[O-])C(CO)c1ccccc1[N+](=O)[O-]` (configuration not stated), the TGI with CAKI-1 renal, with RXF 393 renal, in the assay on HCT-15 colon, in the assay with OVCAR-8 ovarian, with A498 renal and in the assay on OVCAR-4 ovarian was above 100 µM each time.

As to `O=C(C=Nc1ccccc1C(=O)[O-])c1cccs1.O=C(C=Nc1ccccc1C(=O)[O-])c1cccs1.[Ni+2]`, the TGI in the assay with CAKI-1 renal, in the assay with SR leukemia, in the assay with HCT-15 colon, in the assay on OVCAR-8 ovarian and with A498 renal was above 100 µM in each case.

For `COC(=O)Cc1c([C@@]2(C)CCCC(C)(C)C2)ccc2c1C(=O)OC2`, the TGI is 27.9 µM in the assay with RXF 393 renal, 24.1 µM in the assay on HCT-15 colon, above 100 µM with OVCAR-8 ovarian and 41.8 µM in the assay on A498 renal.

On to `Nc1nc(N)c(CCCCc2ccccc2)c(C=O)n1`, for which the TGI is above 100 µM in the assay on CAKI-1 renal; 45.4 µM in the assay with HCT-15 colon; 45 µM in the assay with OVCAR-8 ovarian; above 100 µM in the assay on A498 renal; 70.6 µM with OVCAR-4 ovarian.

Regarding `O=C1C(=c2ccc(=C3C(=O)c4ccc([N+](=O)[O-])cc4[N+]3=O)cc2)N([O-])c2cc([N+](=O)[O-])ccc21`, the GI50 with CAKI-1 renal, in the assay with RXF 393 renal, with HCT-15 colon, in the assay with OVCAR-8 ovarian, with A498 renal and with OVCAR-4 ovarian was above 100 µM in each case. Besides, the TGI in the assay on CAKI-1 renal, in the assay with RXF 393 renal, with HCT-15 colon, in the assay with OVCAR-8 ovarian, in the assay on A498 renal and in the assay with OVCAR-4 ovarian was above 100 µM each time.

For `O=C(CCC(=O)Nc1ccc(Cl)c(Cl)c1)CC(=O)c1ccc2ccccc2c1`, the TGI in the assay on CAKI-1 renal, in the assay on RXF 393 renal, in the assay with HCT-15 colon, with OVCAR-8 ovarian, in the assay on A498 renal and in the assay on OVCAR-4 ovarian was above 100 µM throughout.

Consider `O=[N+]([O-])c1cc(-c2nc(=S)[nH][nH]2)ccc1O`, for which the TGI with CAKI-1 renal was above 100 µM; in the assay with RXF 393 renal, above 100 µM; in the assay on HCT-15 colon, 31 µM; in the assay on A498 renal, above 100 µM; in the assay with OVCAR-4 ovarian, above 100 µM.

For `[O-]/N=[N+](/[O-])C1CCCCC1=[N+]1CCOCC1` (configuration not stated), the TGI in the assay on CAKI-1 renal, with SR leukemia, in the assay on OVCAR-8 ovarian, in the assay on A498 renal and in the assay with OVCAR-4 ovarian was above 100 µM throughout.

In the case of `O=C(O)CN(c1ccccc1)S(=O)(=O)c1cccc([N+](=O)[O-])c1`, the TGI in the assay with CAKI-1 renal, in the assay on RXF 393 renal, in the assay with HCT-15 colon, in the assay with OVCAR-8 ovarian, in the assay with A498 renal and in the assay with OVCAR-4 ovarian was above 100 µM each time.

Turning to `CC1(C)NC(=O)N(CCCCCCN2C(=O)NC(C)(C)C2=O)C1=O`, the TGI in the assay on CAKI-1 renal, in the assay with RXF 393 renal, in the assay on HCT-15 colon, in the assay with OVCAR-8 ovarian, with A498 renal and with OVCAR-4 ovarian was above 100 µM in each case.

With `COc1cc2c(cc1OC)C(C#N)N(C(=O)c1ccccc1)C=C2OC(=O)c1ccccc1` (configuration not stated), the TGI in the assay with SR leukemia was above 100 µM; in the assay on HCT-15 colon it was above 100 µM; in the assay on OVCAR-8 ovarian, 71.8 µM.

`C/C(CCn1[nH]c(=O)ccc1=O)=N\NC(=O)C(N)=O`: the TGI with CAKI-1 renal, in the assay with RXF 393 renal, in the assay with HCT-15 colon, with OVCAR-8 ovarian, with A498 renal and in the assay on OVCAR-4 ovarian was above 100 µM each time.

Consider `O=C(NC(=Nc1ccccc1)SCSC(=Nc1ccccc1)NC(=O)c1ccco1)c1ccco1`, for which the TGI with CAKI-1 renal was above 100 µM; in the assay on RXF 393 renal it was 55 µM; in the assay on HCT-15 colon, above 100 µM; with OVCAR-8 ovarian it was above 100 µM; in the assay with A498 renal, 98.2 µM; with OVCAR-4 ovarian it was above 100 µM.

As to `c1ccc2c(c1)SC(=C1Sc3ccccc3S1)S2`, the TGI in the assay on CAKI-1 renal, with RXF 393 renal, with HCT-15 colon, with OVCAR-8 ovarian and with OVCAR-4 ovarian was above 100 µM in each case.

As to `O=C(COc1ccccc1Cl)N1N=C(c2ccccc2)CC1(O)c1ccccc1` (configuration not stated), the TGI with CAKI-1 renal was determined as 91.8 µM; with SR leukemia it was 32.8 µM; in the assay on HCT-15 colon, 33.6 µM; in the assay with OVCAR-8 ovarian it was 32.1 µM; in the assay on OVCAR-4 ovarian it was 23.4 µM.
